Test results taken from patent US5304474A, “Hydrophobic peptide esters and amides” (Board of Regents, The University of Texas System, priority 1991, dated 1994).
Where two headings read alike, the source gives them in different places.

Columns and labels:
[1] = test system: [^3 H]Leu-Leu-OMe uptake by PBL (facilitated transport); assay: Competitive inhibition of [3H]Leu-Leu-OMe uptake; type: cell-based, human; settings: for inhibition at 250 µM: Homo sapiens, unlabeled compound 250 microM, [3H]Leu-Leu-OMe 10 microM (Table 5)
Description: Human peripheral blood lymphocytes (PBL) were incubated in the presence of [^3 H]labeled Leu-Leu-OMe at 22° C. for varying lengths of time. The incubation mixture was then centrifuged through silicone oil to separate the cells from any unbound or non-internalized [^3 HLeu-Leu-OMe. […] At 37° C., levels of [^3 H]Leu-Leu-OMe accumulation by PBL were increased above those seen at 22° C. (see Table 4).

[2] = target: dipeptidyl peptidase I (DPPI) (Bos taurus, UniProt Q3ZCJ8); assay: Dipeptidyl peptidase I catalyzed lysis of human RBC; type: cell-based, bovine; settings: FIG. 12, FIG. 13
Description: The following experiments were carried out to determine whether DPPI could generate a lytic product from Leu-Leu-OMe. In the experiment detailed in FIG. 12, ^51 Cr-labeled human erythrocytes (RBC) were incubated with varying concentrations of Leu-Leu-OMe alone or in the presence of purified bovine DPPI.
In the experiments detailed in FIG. 13, ^51 Cr-labeled RBC's were exposed to various dipeptide esters or amides in the presence or absence of purified DPPI. […] The first observation is probably related to the inability of this enzyme to catalyze transpeptidation of peptide esters containing D-stereoisomers of amino acids. The latter observations are likely to be related to the fact that polymers of Ser-Leu or Leu-Tyr are not hydrophobic and therefore unlikely to enter and disrupt cell membranes.

[3] = test system: natural killer cells (NK); assay: NK function: lysis of K562 target cells (51Cr release) after preincubation of lymphocytes with compound; settings: for NK toxicity / effect on NK function, in words: lymphocytes exposed 15 minutes at room temperature (FIG. 4, FIG. 5)
Description: PBM were separated from heparinized venous blood of healthy donors by centrifugation over sodium diatrizoate-Ficoll gradients (Isolymph, Gallard-Schlesinger Chemical Mfg. Corp., Carle Place, N.Y.).
All cell exposures to the amino acids, dipeptides or their methyl esters were carried out by suspending cells in Dulbecco's phosphate buffered saline (PBS) and incubating them at room temperature with the reagent at the indicated concentration and time interval.
Percent of control cytotoxicity was calculated using the formula: [formula]

[4] = test system: production of a TCA insoluble product from [^3 H]Leu-Leu-OMe; type: cell-based, human
Description: Iodoacetamide nonspecifically binds covalently to free sulfhydryl groups and thereby inhibits thiol protease function as well as other enzymatic reactions dependent on the presence of reduced sulfhydryl groups.

Chain of dipeptidyl peptidase I (DPPI) (Q3ZCJ8 231-394 limits assumed): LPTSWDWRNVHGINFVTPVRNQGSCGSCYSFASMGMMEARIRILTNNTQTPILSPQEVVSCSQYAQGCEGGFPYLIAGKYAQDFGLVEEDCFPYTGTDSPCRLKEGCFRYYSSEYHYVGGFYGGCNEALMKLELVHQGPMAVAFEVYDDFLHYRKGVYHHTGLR
Chain of dipeptidyl peptidase I (DPPI) (Q3ZCJ8 25-134 limits assumed): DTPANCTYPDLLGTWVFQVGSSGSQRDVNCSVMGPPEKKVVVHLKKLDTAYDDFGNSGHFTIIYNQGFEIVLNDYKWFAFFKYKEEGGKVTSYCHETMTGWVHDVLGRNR
Chain of dipeptidyl peptidase I (DPPI) (Q3ZCJ8 395-463 limits assumed): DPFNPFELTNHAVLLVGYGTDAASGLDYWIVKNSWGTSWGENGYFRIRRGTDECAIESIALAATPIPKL

Row | Structure (SMILES) | competitive inhibition of [3H]Leu-Leu-OMe uptake, in words [1] | inhibition at 250 µM [1] [%] | RBC lysis in the presence of purified DPPI, in words [2] | effect on Leu-Leu-OMe mediated NK toxicity ([3]; added with Leu-Leu-OMe) | NK toxicity / effect on NK function, in words [3] | [^3 H]Leu--Leu--OMe Incorporation, 10% TCA Precipitate [4] | [^3 H]Leu--Leu--OMe Incorporation, Initial [4] | [^3 H]Leu--Leu--OMe Incorporation, 10% TCA Precipitate ([4]; Expt. 1, Cycloheximide 100 micro-g/ml, PMSF 1 micro-M, Iodoacetamide 0.5 micro-M, Nil 2,160 + 193) | NK activity ([3]; PBM, 5 mM (FIG. 1))
1 | COC(=O)[C@@H](CC(C)C)NC(=O)[C@H](N)CC(C)C [D-Leu-D-Leu-OMe] | do not competitively inhibit PBL uptake of L-Leu-L-Leu-OMe | 7 | unable to produce a membrane active metabolite | had no effect on Leu-Leu-OMe mediated NK toxicity | had no inhibitory effect |  |  |  | 
2 | NC(=O)CI [Iodoacetamide, iodoacetamide] |  |  |  |  |  | 243 + 16 cpm | 6,316 + 188 cpm | 140 + 5 cpm | 
3 | CC(C)C[C@H](NC(=O)[C@@H](N)CC(C)C)C(=O)O [Leu-Leu, L-leucyl L-leucine, reference compound] | competitively inhibited | 44 | not polymerized by DPPI to form a product capable of lysing RBC's |  | had no inhibitory effect |  |  |  | 
4 | COC(=O)[C@@H](N)CC(C)C [Leu-OMe, L-leucine methyl ester, reference compound] | do not competitively inhibit PBL uptake of L-Leu-L-Leu-OMe | -10 | not polymerized by DPPI to form a product capable of lysing RBC's |  | had no irreversible effect on NK function |  |  |  | ablated all NK activity
